Assay results published in patent US20260363243A1 (priority 2022, published 2026).
Like-named read-outs stand apart in the source and are kept apart here.

Legend:
Phytophthora nicotianae = assay: In vitro inhibition of hypha growth of oomycete pathogens (microplate, OD595): Phytophthora nicotianae; assay type: cell-based; details: for inhibition at 0.005 µg/mL / inhibition at 0.05 µg/mL / inhibition at 0.5 µg/mL / inhibition at 5 µg/mL: Phytophthora nicotianae, read-out: inhibitory activity on hypha growth; for inhibitory activity compared with OXA: Pythium nicotianae, 5, 0.5 and 0.05 mg/L, in words
cucumber downy mildew [1] = assay: Activity in vivo for inhibiting cucumber downy mildew (potting method, greenhouse); details: for efficacy compared with OXA / efficacy compared with dimethomorph and cyazofamid / efficacy compared with oxathiapiprolin / bactericidal activity: in words
Text: The test and investigation method refers to a SOP-SC-1098 cucumber downy mildew potting method in the fungicide section of Standard operation Specification for testing biological Activity of pesticides written by Kang Zhuo and Gu Baogen.

Phytophthora sojae = assay: In vitro inhibition of hypha growth of oomycete pathogens (microplate, OD595): Phytophthora sojae; assay type: cell-based; details: for inhibitory activity compared with OXA: 5, 0.5 and 0.05 mg/L, in words; for inhibition at 0.005 µg/mL / inhibition at 0.05 µg/mL / inhibition at 0.5 µg/mL / inhibition at 5 µg/mL: read-out: inhibitory activity on hypha growth
Phytophthora infestans = assay: microbe, parasite or virus in culture; assay type: cell-based; details: for inhibitory activity compared with OXA: 5, 0.5 and 0.05 mg/L, in words; for inhibition at 0.005 µg/mL / inhibition at 0.05 µg/mL / inhibition at 0.5 µg/mL / inhibition at 5 µg/mL: read-out: inhibitory activity on hypha growth
Phytophthora capsici = assay: In vitro inhibition of hypha growth of oomycete pathogens (microplate, OD595): Phytophthora capsici; assay type: cell-based; details: for inhibitory activity compared with OXA: 5, 0.5 and 0.05 mg/L, in words; for inhibition at 0.005 µg/mL / inhibition at 0.05 µg/mL / inhibition at 0.5 µg/mL / inhibition at 5 µg/mL: read-out: inhibitory activity on hypha growth
[2] = test system: Cucumber downy mildew (Pseudoperonospora cubensis); assay: Field efficacy test for controlling cucumber downy mildew
Experimental: The test was carried out according to the Guidelines for the Field Efficacy Trials of Pesticides (Part 1): Fungicides Against Downy Mildew of Cucumber (GB/T17980.26-2000). The test site was a mature vegetable base of Hushu in Nanjing, Jiangsu Province. Cucumber downy mildew (Pseudoperonospora cubensis) was used as the target, oxathiapiprolin and Yin Fali were used as control agents. The test crops was cucumber and the variety was ‘Green Core’. The plots were arranged in a randomized block design, with each plot approximately 8 m^2 and each treatment replicated three times. The whole stem and leaf spray was employed, the test was carried out at the early stage of cucumber downy mildew occurrence, and the agents were applied twice consecutively, with the second application 5 days after the first one. The investigation method was to take one investigation point for every row of cucumbers in each treatment district, assess the severity of downy mildew of all leaves of all cucumber plants, and calculate the disease index and the prevention effect.

cucumber downy mildew [3] = details: Table 3, data from Li, J. L. et al. 2020, cited from earlier work
[4] = 0.005 mg/L, re-screening, Table 2
[5] = 0.02 mg/L, re-screening, Table 2
[6] = 0.078 mg/L, re-screening, Table 2
[7] = 0.312 mg/L, re-screening, Table 2
[8] = 1.25 mg/L, re-screening, Table 2
[9] = after the first pesticide application, 50 mg/L
[10] = after the second pesticide application, 50 mg/L

SMILES: CCOC(CC(=O)N1CCC(c2nc(C3=NOC(c4c(F)cccc4F)C3)cs2)CC1)OC (centres unmarked) [II-3]
- inhibition at 0.005 µg/mL (Phytophthora nicotianae): 90 to 100%
- inhibition at 0.05 µg/mL (Phytophthora nicotianae): 90 to 100%
- inhibition at 0.5 µg/mL (Phytophthora nicotianae): 90 to 100%
- inhibition at 5 µg/mL (Phytophthora nicotianae): 90 to 100%
- inhibitory activity compared with OXA (Phytophthora nicotianae): comparable to that of the control agent OXA
- efficacy compared with OXA (cucumber downy mildew [1]; 0.005 mg/L): comparable to that of the control agent OXA
- Control effect (cucumber downy mildew [1]; [4]): A (90%≤A≤100%)
- Control effect (cucumber downy mildew [1]; [5]): A (90%≤A≤100%)
- efficacy compared with dimethomorph and cyazofamid (cucumber downy mildew [1]; 0.078 mg/L): superior to that of dimethomorph and cyazofamid
- efficacy compared with oxathiapiprolin (cucumber downy mildew [1]; 0.078 mg/L): equivalent to that of oxathiapiprolin at the same concentration
- Control effect (cucumber downy mildew [1]; 0.078 mg/L, re-screening): ≥ 90%
- Control effect (cucumber downy mildew [1]; [6]): A (90%≤A≤100%)
- Control effect (cucumber downy mildew [1]; [7]): A (90%≤A≤100%)
- Control effect (cucumber downy mildew [1]; 0.625 mg/L, Table 3): A (90% ≤ A ≤ 100%)
- Control effect (cucumber downy mildew [1]; 1.25 mg/L, Table 1): A (90%≤A≤100%)
- Control effect (cucumber downy mildew [1]; [8]): A (90%≤A≤100%)
- Control effect (cucumber downy mildew [1]; 2.5 mg/L, Table 3): A (90% ≤ A ≤ 100%)
- Control effect (cucumber downy mildew [1]; 5 mg/L, Table 1): A (90%≤A≤100%)
- Control effect (cucumber downy mildew [1]; 10 mg/L, Table 3): A (90% ≤ A ≤ 100%)
- Control effect (cucumber downy mildew [1]; 20 mg/L, Table 1): A (90%≤A≤100%)
- bactericidal activity (cucumber downy mildew [1]; re-screening): excellent bactericidal activity
- inhibitory activity compared with OXA (Phytophthora sojae): comparable to that of the control agent OXA
- inhibition at 0.005 µg/mL (Phytophthora sojae): 75 to 90%
- inhibition at 0.05 µg/mL (Phytophthora sojae): 90 to 100%
- inhibition at 0.5 µg/mL (Phytophthora sojae): 90 to 100%
- inhibition at 5 µg/mL (Phytophthora sojae): 90 to 100%
- inhibitory activity compared with OXA (Phytophthora infestans): comparable to that of the control agent OXA
- inhibition at 0.005 µg/mL (Phytophthora infestans): 75 to 90%
- inhibition at 0.05 µg/mL (Phytophthora infestans): 90 to 100%
- inhibition at 0.5 µg/mL (Phytophthora infestans): 90 to 100%
- inhibition at 5 µg/mL (Phytophthora infestans): 90 to 100%
- inhibitory activity compared with OXA (Phytophthora capsici): comparable to that of the control agent OXA
- inhibition at 0.005 µg/mL (Phytophthora capsici): 90 to 100%
- inhibition at 0.05 µg/mL (Phytophthora capsici): 90 to 100%
- inhibition at 0.5 µg/mL (Phytophthora capsici): 90 to 100%
- inhibition at 5 µg/mL (Phytophthora capsici): 90 to 100%
- control effect compared with OXA and Yinfali ([2]; 50 mg/L, in words): better than that of the control agents OXA and Yinfali
- Average control effect [2, 9]: 66.63%
- Average disease index [2, 9]: 2.80
- Average control effect [2, 10]: 79.72%
- Average disease index [2, 10]: 6.93
- effect in controlling cucumber downy mildew in the field ([2]; in words): good effect in controlling cucumber downy mildew, it can effectively protect new leaves and can effectively inhibit the spread of disease spots on the infected leaves

SMILES: COC(CC(=O)N1CCC(c2nc(C3=NOC(c4c(F)cccc4F)C3)cs2)CC1)OCC(F)(F)F (centres unmarked) [II-18]
- inhibition at 0.005 µg/mL (Phytophthora nicotianae): 75 to 90%
- inhibition at 0.05 µg/mL (Phytophthora nicotianae): 90 to 100%
- inhibition at 0.5 µg/mL (Phytophthora nicotianae): 90 to 100%
- inhibition at 5 µg/mL (Phytophthora nicotianae): 90 to 100%
- inhibitory activity compared with OXA (Phytophthora nicotianae): comparable to that of the control agent OXA
- efficacy compared with OXA (cucumber downy mildew [1]; 0.005 mg/L): comparable to that of the control agent OXA
- Control effect (cucumber downy mildew [1]; [4]): A (90%≤A≤100%)
- Control effect (cucumber downy mildew [1]; [5]): A (90%≤A≤100%)
- efficacy compared with dimethomorph and cyazofamid (cucumber downy mildew [1]; 0.078 mg/L): superior to that of dimethomorph and cyazofamid
- efficacy compared with oxathiapiprolin (cucumber downy mildew [1]; 0.078 mg/L): equivalent to that of oxathiapiprolin at the same concentration
- Control effect (cucumber downy mildew [1]; 0.078 mg/L, re-screening): ≥ 90%
- Control effect (cucumber downy mildew [1]; [6]): A (90%≤A≤100%)
- Control effect (cucumber downy mildew [1]; [7]): A (90%≤A≤100%)
- Control effect (cucumber downy mildew [1]; 0.625 mg/L, Table 3): A (90% ≤ A ≤ 100%)
- Control effect (cucumber downy mildew [1]; 1.25 mg/L, Table 1): A (90%≤A≤100%)
- Control effect (cucumber downy mildew [1]; [8]): A (90%≤A≤100%)
- Control effect (cucumber downy mildew [1]; 2.5 mg/L, Table 3): A (90% ≤ A ≤ 100%)
- Control effect (cucumber downy mildew [1]; 5 mg/L, Table 1): A (90%≤A≤100%)
- Control effect (cucumber downy mildew [1]; 10 mg/L, Table 3): A (90% ≤ A ≤ 100%)
- Control effect (cucumber downy mildew [1]; 20 mg/L, Table 1): A (90%≤A≤100%)
- bactericidal activity (cucumber downy mildew [1]; re-screening): excellent bactericidal activity
- inhibitory activity compared with OXA (Phytophthora sojae): comparable to that of the control agent OXA
- inhibition at 0.005 µg/mL (Phytophthora sojae): 90 to 100%
- inhibition at 0.05 µg/mL (Phytophthora sojae): 90 to 100%
- inhibition at 0.5 µg/mL (Phytophthora sojae): 90 to 100%
- inhibition at 5 µg/mL (Phytophthora sojae): 90 to 100%
- inhibitory activity compared with OXA (Phytophthora infestans): comparable to that of the control agent OXA
- inhibition at 0.005 µg/mL (Phytophthora infestans): 90 to 100%
- inhibition at 0.05 µg/mL (Phytophthora infestans): 90 to 100%
- inhibition at 0.5 µg/mL (Phytophthora infestans): 90 to 100%
- inhibition at 5 µg/mL (Phytophthora infestans): 90 to 100%
- inhibitory activity compared with OXA (Phytophthora capsici): comparable to that of the control agent OXA
- inhibition at 0.005 µg/mL (Phytophthora capsici): 90 to 100%
- inhibition at 0.05 µg/mL (Phytophthora capsici): 90 to 100%
- inhibition at 0.5 µg/mL (Phytophthora capsici): 90 to 100%
- inhibition at 5 µg/mL (Phytophthora capsici): 90 to 100%

SMILES: O=C(CC1OCCCO1)N1CCC(c2nc(C3=NOC(c4c(F)cccc4F)C3)cs2)CC1 (centres unmarked) [II-21]
- Control effect (cucumber downy mildew [1]; 1.25 mg/L, Table 1): D (45%≤D<60%)
- Control effect (cucumber downy mildew [1]; 5 mg/L, Table 1): B (75%≤B<90%)
- Control effect (cucumber downy mildew [1]; 20 mg/L, Table 1): A (90%≤A≤100%)

SMILES: O=C(CC1OCCO1)N1CCC(c2nc(C3=NOC(c4c(F)cccc4F)C3)cs2)CC1 (centres unmarked) [II-22]
- Control effect (cucumber downy mildew [1]; 5 mg/L, Table 1): D (45%≤D<60%)
- Control effect (cucumber downy mildew [1]; 20 mg/L, Table 1): A (90%≤A≤100%)

SMILES: O=C(CC1OCCCCO1)N1CCC(c2nc(C3=NOC(c4c(F)cccc4F)C3)cs2)CC1 (centres unmarked) [II-28]
- Control effect (cucumber downy mildew [1]; 5 mg/L, Table 1): C (60%≤C<75%)
- Control effect (cucumber downy mildew [1]; 20 mg/L, Table 1): C (60%≤C<75%)

SMILES: Cc1cc(C(F)(F)F)nn1CC(=O)N1CCC(c2nc(C3=NOC(c4c(F)cccc4F)C3)cs2)CC1 (centres unmarked) [OXA, oxathiapiprolin, reference compound]
- inhibition at 0.005 µg/mL (Phytophthora nicotianae): 90 to 100%
- inhibition at 0.05 µg/mL (Phytophthora nicotianae): 90 to 100%
- inhibition at 0.5 µg/mL (Phytophthora nicotianae): 90 to 100%
- inhibition at 5 µg/mL (Phytophthora nicotianae): 90 to 100%
- Control effect (cucumber downy mildew [1]; [4]): A (90%≤A≤100%)
- Control effect (cucumber downy mildew [1]; [5]): A (90%≤A≤100%)
- Control effect (cucumber downy mildew [1]; [6]): A (90%≤A≤100%)
- Control effect (cucumber downy mildew [1]; [7]): A (90%≤A≤100%)
- Control effect (cucumber downy mildew [1]; 0.625 mg/L, Table 3): A (90% ≤ A ≤ 100%)
- Control effect (cucumber downy mildew [1]; [8]): A (90%≤A≤100%)
- Control effect (cucumber downy mildew [1]; 2.5 mg/L, Table 3): A (90% ≤ A ≤ 100%)
- Control effect (cucumber downy mildew [1]; 10 mg/L, Table 3): A (90% ≤ A ≤ 100%)
- inhibition at 0.005 µg/mL (Phytophthora sojae): 90 to 100%
- inhibition at 0.05 µg/mL (Phytophthora sojae): 90 to 100%
- inhibition at 0.5 µg/mL (Phytophthora sojae): 90 to 100%
- inhibition at 5 µg/mL (Phytophthora sojae): 90 to 100%
- inhibition at 0.005 µg/mL (Phytophthora infestans): 90 to 100%
- inhibition at 0.05 µg/mL (Phytophthora infestans): 90 to 100%
- inhibition at 0.5 µg/mL (Phytophthora infestans): 90 to 100%
- inhibition at 5 µg/mL (Phytophthora infestans): 90 to 100%
- inhibition at 0.005 µg/mL (Phytophthora capsici): 90 to 100%
- inhibition at 0.05 µg/mL (Phytophthora capsici): 90 to 100%
- inhibition at 0.5 µg/mL (Phytophthora capsici): 90 to 100%
- inhibition at 5 µg/mL (Phytophthora capsici): 90 to 100%
- Average control effect [2, 9]: 36.02%
- Average disease index [2, 9]: 5.36
- Average control effect [2, 10]: 74.87%
- Average disease index [2, 10]: 8.59

SMILES: CC(C)CCC(=O)N1CCC(c2nc(C3=NOC(c4c(F)cccc4F)C3)cs2)CC1 (centres unmarked) [comparative 1]
- Control effect (cucumber downy mildew [3]; 0.625 mg/L): E (0% ≤ E < 45%)
- Control effect (cucumber downy mildew [3]; 2.5 mg/L): B (75% ≤ B < 90%)
- Control effect (cucumber downy mildew [3]; 10 mg/L): B (75% ≤ B < 90%)
